Reference: US10059655B2, “Lipids and lipid compositions for the delivery of active agents” (priority 2013, dated 2018)

Columns and labels:
[1] = tested on: hLeptin; assay: Human leptin in mouse plasma (ELISA) after IV tail vein injection of encapsulated leptin mRNA; format: in vivo; conditions: 0.4 mpk, C57 mice, @ 24 h
Protocol: Human leptin in mouse plasma was measured by ELISA. Antibodies purchased from the R&D Systems duoset (Cat# DY398E, part#840279 for capture antibody and part#840280 for detection antibody) were reconstituted using PBS and titered, again using PBS. The capture antibody was coated at 4 ug/ml in 30 ul/well on a white Nunc® Maxisorp 384 well plate (Cat#460372). After an overnight incubation at room temperature the capture antibody was aspirated and the plate blocked for 2 hours at room temperature with 90 ul/well of KPL milk blocker (Cat#50-82-00). Once the incubation was completed the plate was aspirated and recombinant standards and samples were added to the plate at 30 ul/well for 2 hours at 37° C. while shaking at 600 rpm. Sample/standard dilutions were made using casein sample diluent. Washing/aspiration 3 times with 100 ul/well followed, using Teknova plate wash solution (Cat# P1192). […] The plate was quickly read using a SpectramaxM5 plate reader with a 50 ms integration time. […]
Before the tail vein injection, mouse body weights were recorded and diet weighted, with mice grouped according to their body weights. […]
On day 0, animals were weighed and sorted according to average body weight. Mice were dosed, and food intake (FI) was recorded, on each of days 1-7 and days 9, 11, and 16.

[2] = tested on: hFIX; assay: Human Factor IX ELISA after IV injection of encapsulated hFIX mRNA; format: in vivo; conditions: 0.12 mpk, C57 mice, @ 24 h
Protocol: An sheep anti-human Factor IX antibody (Cat# FIX-EIA-C) from Enzyme Research Laboratories is coated on 384-well white microtiter plates overnight at a concentration of 5 ug/ml, then blocked for assay using KPL blocker (Cat#50-82-00). Then, plasma samples are diluted in a casein-based sample diluent and incubated on the plate with biological controls and a standard curve created from recombinant protein (Cat#HCIX-0040). The plate is then washed to remove unbound material. A biotinylated sheep anti-human Factor IX antibody (Cat# FIX-EIA-D) from Enzyme Research Laboratories is then added to the plate at 0.6 ug/ml to detect human Factor IX protein bound by the capture antibody. The plate is washed again and a streptavidin-conjugated horseradish peroxidase reagent (Cat#21140) diluted 1:1250, is incubated on the plate. A third wash step is performed and chemiluminescent reagents (Cat#1859678 & Cat#18596789) are combined and added to the plate and immediately read by a capable plate reader using all wavelengths and a 50 millisecond integration time. Unknown samples are interpolated off the human recombinant Factor IX standard curve.

[3] = Measurement of siRNA encapsulation (SYBR Gold fluorescence); format: physicochemical; conditions: for % Encap.: FVII siRNA; for % encapsulation siRNA FVII: FVII siRNA in LNP
Protocol: The lipid nanoparticles (LNPs) were formed by mixing equal volumes of lipids dissolved in alcohol with siRNA dissolved in a citrate buffer by an impinging jet process. The lipid solution contains a cationic lipid compound of the invention, a helper lipid (cholesterol), an optional neutral lipid (DSPC) and a stealth lipid (S010, S024, S027, or S031) at a concentration of 8-16 mg/mL with a target of 12 mg/mL in an alcohol. The siRNA to total lipid ratio is approximately 0.05 (wt/wt). Where a LNP formulation contains four lipid components, the molar ratios of the lipids ranges from 20 to 70 mole percent for the cationic lipid with a target of 40-60, the mole percent of helper lipid ranges from 20 to 70 with a target of 30 to 50, the mole percent of neutral lipid ranges from 0-30, the mole percent of PEG lipid has a range from 1 to 6 with a target of 2 to 5. The concentration of siRNA solution ranges from 0.7 to 1.0 mg/mL with a target of 0.8 to 0.9 mg/mL in a sodium citrate: sodium chloride buffer pH 4-6, with a target of 4.5-5.5. The LNPs are formed by mixing equal volumes of lipid solution in ethanol with siRNA dissolved in a citrate buffer by an impinging jet process through a mixing device with ID ranging from 0.25 to 2.0 mm at a flow rate from 10 to 640 mL/min. The mixed LNP solution is held at room temperature for 0-24 hrs prior to a dilution step. The solution is then concentrated and diafiltered with suitable buffer by ultrafiltration process using membranes with a MW cutoff from 30 to 500 KD. The final product is sterile filtered and stored at 4° C.
SYBR Gold flourescence reagent is used for the determination of siRNA encapsulation in the DLP's. DLP's with and without triton x-100 are used to determine the free siRNA and total siRNA amounts. DLP's samples with and without triton X-100 were excited at 485 nm and flourescence emission is measured at 530 nm. Encapsulation efficiency is calculated based on the following formula: Encapsulation efficiency: [(free siRNA concentration−total siRNA concentration)/(total siRNA concentration)]×100% Encapsulation Data

| SMILES | Expression of protein following IV injection of encapsulated mRNA: hLeptin [1] [ng/mL] | Expression of protein following IV injection of encapsulated mRNA: hFIX [2] [ng/mL] | % Encap. [3] [%] | % encapsulation siRNA FVII [3] [%] |
| --- | --- | --- | --- | --- |
| CCCCC/C=C\C/C=C\CCCCCCCC(=O)OCC(COC(=O)CCCCCCC/C=C\C/C=C\CCCCC)COC(=O)C1(C)CCN(C)C1 (centres unmarked) [Example 1, (9Z,9′Z,12Z,12′Z)-2-(((1,3-dimethylpyrrolidine-3-carbonyl)oxy)methyl)propane-1,3-diyl bis(octadeca-9,12-dienoate)] | 12.3 | 147.7 | 85.1 | 85.1 |
| CCCCC/C=C\C/C=C\CCCCCCCC(=O)OCC(COC(=O)CCC(OCCCCCCCC)OCCCCCCCC)COC(=O)OCCCN(CC)CC (centres unmarked) [Example 13, (9Z,12Z)-3-((4,4-bis(octyloxy)butanoyl)oxy)-2-((((3-(diethylamino)propoxy)carbonyl)oxy)methyl)propyl octadeca-9,12-dienoate] | 3.8 | 292.7 | 88.1 | 88.1 |
